# Test results published in PMC9090415, “Discovery of small molecule inhibitors of Plasmodium falciparum apicoplast DNA polymerase” (Journal of Enzyme Inhibition and Medicinal Chemistry, 2022).
# Target: P. falciparum apicoplast DNA polymerase (Pf-apPOL) (Plasmodium falciparum, UniProt Q8ILY1)
# Experiment: Fluorescence-based high-throughput DNA polymerase assay (molecular beacon), primary screen and dose-response
# Assay type: biochemical
# In short: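 Single-point screening used 10 µM compound with 20 nM polymerase, 20 nM hairpin substrate and 6 µM dNTPs for 90 min at 25 °C. Confirmatory titrations (2.5–80 µM) followed fluorescence at three times, and IC50 was derived from a fit including a cooperativity term n.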
# [1] = DRC-1; concentration 80 (unit not given); 10'
# [2] = primary screen value of the 186 hits; unit not given; 90 min, 10 µM
# [3] = primary screen value; head prints only 'DNA Pol'; 90 min, 10 µM
# P. falciparum apicoplast DNA polymerase (Pf-apPOL), sequence (Q8ILY1 entry or part of it): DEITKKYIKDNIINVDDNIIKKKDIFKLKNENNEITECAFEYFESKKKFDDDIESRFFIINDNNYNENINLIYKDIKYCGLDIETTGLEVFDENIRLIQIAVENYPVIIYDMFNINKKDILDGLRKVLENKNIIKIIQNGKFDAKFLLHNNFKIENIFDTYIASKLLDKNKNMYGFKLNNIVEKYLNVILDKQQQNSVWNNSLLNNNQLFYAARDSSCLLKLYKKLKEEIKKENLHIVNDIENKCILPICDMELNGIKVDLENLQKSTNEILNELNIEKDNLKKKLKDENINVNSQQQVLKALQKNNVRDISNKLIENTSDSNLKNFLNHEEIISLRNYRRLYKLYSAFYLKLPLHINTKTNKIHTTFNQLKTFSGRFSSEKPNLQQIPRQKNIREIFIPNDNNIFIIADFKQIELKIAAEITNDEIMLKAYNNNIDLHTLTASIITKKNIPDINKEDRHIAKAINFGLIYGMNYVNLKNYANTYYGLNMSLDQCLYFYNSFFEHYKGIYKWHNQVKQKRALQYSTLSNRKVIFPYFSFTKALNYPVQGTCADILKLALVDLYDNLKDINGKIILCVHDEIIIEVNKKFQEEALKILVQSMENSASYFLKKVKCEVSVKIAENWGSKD
smiles,measurement,setting,value
Cc1ccc(C2=N/C(=C\c3ccc(I)o3)C(=O)O2)cc1[N+](=O)[O-] [KU0073890],% inhibition Apo pol 10',DRC-1; concentration 2.5; 10',15.7556%
same,% inhibition Apol 90',DRC-1; concentration 2.5; 90',9.731%
same,% inhibition apPOL 180',DRC-1; concentration 2.5; 180',6.694%
same,% inhibition Apo pol 10',DRC-1; concentration 5; 10',16.0721%
same,% inhibition Apol 90',DRC-1; concentration 5; 90',7.063%
same,% inhibition apPOL 180',DRC-1; concentration 5; 180',1.084%
same,% inhibition Apo pol 10',DRC-1; concentration 10; 10',45.023%
same,% inhibition Apol 90',DRC-1; concentration 10; 90',27.25%
same,% inhibition apPOL 180',DRC-1; concentration 10; 180',14.7198%
same,% inhibition Apo pol 10',DRC-1; concentration 20; 10',76.1272%
same,% inhibition Apol 90',DRC-1; concentration 20; 90',60.0756%
same,% inhibition apPOL 180',DRC-1; concentration 20; 180',43.2832%
same,% inhibition Apo pol 10',DRC-1; concentration 40; 10',86.9883%
same,% inhibition Apol 90',DRC-1; concentration 40; 90',86.9491%
same,% inhibition apPOL 180',DRC-1; concentration 40; 180',82.7565%
same,% inhibition Apo pol 10',[1],80.4424%
same,% inhibition Apol 90',DRC-1; concentration 80; 90',89.2693%
same,% inhibition apPOL 180',DRC-1; concentration 80; 180',91.2118%
same,% inhibition Apo pol 5',DRC-2; 5'; concentration 2.5,19%
same,% inhibition Apol 40',DRC-2; 40'; concentration 2.5,19%
same,% inhibition ApPOL 90',DRC-2; 90'; concentration 2.5,17%
same,% inhibition ApPOL 90',DRC-2; 90'; concentration 40,75%
same,% inhibition ApPOL 90',DRC-2; 90'; concentration 80,75%
same,% inhibition apPOL 180',DRC-2; 180'; concentration 5,17%
same,% inhibition Apo pol 5',DRC-2; concentration 2.5; 5',19%
same,% inhibition Apol 40',DRC-2; concentration 2.5; 40',19%
same,% inhibition ApPOL 90',DRC-2; concentration 2.5; 90',17%
same,% inhibition apPOL 180',DRC-2; concentration 2.5; 180',11%
same,% inhibition Apo pol 5',DRC-2; concentration 5; 5',35%
same,% inhibition Apol 40',DRC-2; concentration 5; 40',32%
same,% inhibition ApPOL 90',DRC-2; concentration 5; 90',29%
same,% inhibition apPOL 180',DRC-2; concentration 5; 180',17%
same,% inhibition Apo pol 5',DRC-2; concentration 10; 5',44%
same,% inhibition Apol 40',DRC-2; concentration 10; 40',42%
same,% inhibition ApPOL 90',DRC-2; concentration 10; 90',38%
same,% inhibition apPOL 180',DRC-2; concentration 10; 180',25%
same,% inhibition Apo pol 5',DRC-2; concentration 20; 5',55%
same,% inhibition Apol 40',DRC-2; concentration 20; 40',62%
same,% inhibition ApPOL 90',DRC-2; concentration 20; 90',60%
same,% inhibition apPOL 180',DRC-2; concentration 20; 180',51%
same,% inhibition Apo pol 5',DRC-2; concentration 40; 5',58%
same,% inhibition Apol 40',DRC-2; concentration 40; 40',73%
same,% inhibition ApPOL 90',DRC-2; concentration 40; 90',75%
same,% inhibition apPOL 180',DRC-2; concentration 40; 180',77%
same,% inhibition Apo pol 5',DRC-2; concentration 80; 5',49%
same,% inhibition Apol 40',DRC-2; concentration 80; 40',70%
same,% inhibition ApPOL 90',DRC-2; concentration 80; 90',75%
same,% inhibition apPOL 180',DRC-2; concentration 80; 180',80%
same,DNA Pol,[2],42
same,DNA Pol,[3],42
"Cc1cc(C)nc(Nc2nc(CC(=O)Nc3nc(-c4ccco4)cs3)cs2)n1 [Molecule 92, O=C(Nc1scc(n1)c1ccco1)Cc1csc(n1)Nc1nc(C)cc(n1)C]",% inhibition Apo pol 10',DRC-1; concentration 2.5; 10',-6.381%
same,% inhibition Apol 90',DRC-1; concentration 2.5; 90',-8.504%
same,% inhibition apPOL 180',DRC-1; concentration 2.5; 180',-14.5806%
same,% inhibition Apo pol 10',DRC-1; concentration 5; 10',13.7887%
same,% inhibition Apol 90',DRC-1; concentration 5; 90',3.55%
same,% inhibition apPOL 180',DRC-1; concentration 5; 180',-5.24%
same,% inhibition Apo pol 10',DRC-1; concentration 10; 10',59.5511%
same,% inhibition Apol 90',DRC-1; concentration 10; 90',43.4607%
same,% inhibition apPOL 180',DRC-1; concentration 10; 180',29.1586%
same,% inhibition Apo pol 10',DRC-1; concentration 20; 10',80.2022%
same,% inhibition Apol 90',DRC-1; concentration 20; 90',69.8736%
same,% inhibition apPOL 180',DRC-1; concentration 20; 180',60.6937%
same,% inhibition Apo pol 10',DRC-1; concentration 40; 10',86.2847%
same,% inhibition Apol 90',DRC-1; concentration 40; 90',85.2413%
same,% inhibition apPOL 180',DRC-1; concentration 40; 180',83.5937%
same,% inhibition Apo pol 10',[1],83.354%
same,% inhibition Apol 90',DRC-1; concentration 80; 90',86.9682%
same,% inhibition apPOL 180',DRC-1; concentration 80; 180',88.1815%
same,% inhibition Apo pol 5',DRC-2; 5'; concentration 5,6%
same,% inhibition Apo pol 5',DRC-2; 5'; concentration 40,41%
same,% inhibition Apol 40',DRC-2; 40'; concentration 10,41%
same,% inhibition Apol 40',DRC-2; 40'; concentration 20,59%
same,% inhibition Apol 40',DRC-2; 40'; concentration 80,59%
same,% inhibition ApPOL 90',DRC-2; 90'; concentration 5,6%
same,% inhibition Apo pol 5',DRC-2; concentration 2.5; 5',7%
same,% inhibition Apol 40',DRC-2; concentration 2.5; 40',9%
same,% inhibition ApPOL 90',DRC-2; concentration 2.5; 90',7.61%
same,% inhibition apPOL 180',DRC-2; concentration 2.5; 180',3.63%
same,% inhibition Apo pol 5',DRC-2; concentration 5; 5',6%
same,% inhibition Apol 40',DRC-2; concentration 5; 40',5.45%
same,% inhibition ApPOL 90',DRC-2; concentration 5; 90',6%
same,% inhibition apPOL 180',DRC-2; concentration 5; 180',0.203%
same,% inhibition Apo pol 5',DRC-2; concentration 10; 5',37%
same,% inhibition Apol 40',DRC-2; concentration 10; 40',41%
same,% inhibition ApPOL 90',DRC-2; concentration 10; 90',39%
same,% inhibition apPOL 180',DRC-2; concentration 10; 180',30%
same,% inhibition Apo pol 5',DRC-2; concentration 20; 5',43%
same,% inhibition Apol 40',DRC-2; concentration 20; 40',59%
same,% inhibition ApPOL 90',DRC-2; concentration 20; 90',60%
same,% inhibition apPOL 180',DRC-2; concentration 20; 180',57%
same,% inhibition Apo pol 5',DRC-2; concentration 40; 5',41%
same,% inhibition Apol 40',DRC-2; concentration 40; 40',65%
same,% inhibition ApPOL 90',DRC-2; concentration 40; 90',70%
same,% inhibition apPOL 180',DRC-2; concentration 40; 180',74%
same,% inhibition Apo pol 5',DRC-2; concentration 80; 5',29%
same,% inhibition Apol 40',DRC-2; concentration 80; 40',59%
same,% inhibition ApPOL 90',DRC-2; concentration 80; 90',66%
same,% inhibition apPOL 180',DRC-2; concentration 80; 180',73%
same,DNA Pol,[2],70
same,DNA Pol,[3],70
"COc1ccc(NC(=O)Cn2nc3c(cc2=O)CCC3)cc1Cl [Molecule 4, COc1ccc(cc1Cl)NC(=O)Cn1nc2CCCc2cc1=O]",% inhibition Apo pol 10',DRC-1; concentration 2.5; 10',-1.67%
same,% inhibition Apol 90',DRC-1; concentration 2.5; 90',-5%
same,% inhibition apPOL 180',DRC-1; concentration 2.5; 180',-9%
same,% inhibition Apo pol 10',DRC-1; concentration 5; 10',44%
same,% inhibition Apol 90',DRC-1; concentration 5; 90',29%
same,% inhibition apPOL 180',DRC-1; concentration 5; 180',17%
same,% inhibition Apo pol 10',DRC-1; concentration 10; 10',88%
same,% inhibition Apol 90',DRC-1; concentration 10; 90',78%
same,% inhibition apPOL 180',DRC-1; concentration 10; 180',66%
same,% inhibition Apo pol 10',DRC-1; concentration 20; 10',94%
same,% inhibition Apol 90',DRC-1; concentration 20; 90',90%
same,% inhibition apPOL 180',DRC-1; concentration 20; 180',86%
same,% inhibition Apo pol 10',DRC-1; concentration 40; 10',93%
same,% inhibition Apol 90',DRC-1; concentration 40; 90',92%
same,% inhibition apPOL 180',DRC-1; concentration 40; 180',91%
same,% inhibition Apo pol 10',[1],89%
same,% inhibition Apol 90',DRC-1; concentration 80; 90',90%
same,% inhibition apPOL 180',DRC-1; concentration 80; 180',91%
same,% inhibition Apol 40',DRC-2; 40'; concentration 10,69%
same,% inhibition Apol 40',DRC-2; 40'; concentration 20,69%
same,% inhibition ApPOL 90',DRC-2; 90'; concentration 10,71%
same,% inhibition ApPOL 90',DRC-2; 90'; concentration 80,71%
same,% inhibition apPOL 180',DRC-2; 180'; concentration 5,44%
same,% inhibition apPOL 180',DRC-2; 180'; concentration 10,69%
same,% inhibition apPOL 180',DRC-2; 180'; concentration 40,78%
same,% inhibition Apo pol 5',DRC-2; concentration 2.5; 5',19%
same,% inhibition Apol 40',DRC-2; concentration 2.5; 40',18%
same,% inhibition ApPOL 90',DRC-2; concentration 2.5; 90',16%
same,% inhibition apPOL 180',DRC-2; concentration 2.5; 180',8%
same,% inhibition Apo pol 5',DRC-2; concentration 5; 5',46%
same,% inhibition Apol 40',DRC-2; concentration 5; 40',55%
same,% inhibition ApPOL 90',DRC-2; concentration 5; 90',54%
same,% inhibition apPOL 180',DRC-2; concentration 5; 180',44%
same,% inhibition Apo pol 5',DRC-2; concentration 10; 5',52%
same,% inhibition Apol 40',DRC-2; concentration 10; 40',69%
same,% inhibition ApPOL 90',DRC-2; concentration 10; 90',71%
same,% inhibition apPOL 180',DRC-2; concentration 10; 180',69%
same,% inhibition Apo pol 5',DRC-2; concentration 20; 5',49%
same,% inhibition Apol 40',DRC-2; concentration 20; 40',69%
same,% inhibition ApPOL 90',DRC-2; concentration 20; 90',73%
same,% inhibition apPOL 180',DRC-2; concentration 20; 180',75%
same,% inhibition Apo pol 5',DRC-2; concentration 40; 5',50%
same,% inhibition Apol 40',DRC-2; concentration 40; 40',70%
same,% inhibition ApPOL 90',DRC-2; concentration 40; 90',74%
same,% inhibition apPOL 180',DRC-2; concentration 40; 180',78%
same,% inhibition Apo pol 5',DRC-2; concentration 80; 5',43%
same,% inhibition Apol 40',DRC-2; concentration 80; 40',65%
same,% inhibition ApPOL 90',DRC-2; concentration 80; 90',71%
same,% inhibition apPOL 180',DRC-2; concentration 80; 180',76%
same,% inhibition Apo pol 10',first dose-response set; 10'; concentration 5,44%
same,% inhibition Apol 90',first dose-response set; 90'; concentration 10,78%
same,% inhibition Apol 90',first dose-response set; 90'; concentration 20,90%
same,% inhibition Apol 90',first dose-response set; 90'; concentration 80,90%
same,% inhibition apPOL 180',first dose-response set; 180'; concentration 40,91%
same,% inhibition apPOL 180',first dose-response set; 180'; concentration 80,91%
same,DNA Pol,[2],45
same,DNA Pol,[3],45
